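Following 48 hours of exposure in 96-well plates, responses at five concentrations were used to interpolate endpoints linearly. GI50 is the concentration that inhibits growth by half. TGI: total growth inhibition.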
Tests used:
Assay in all cases: NCI-60 cell line screen, 48 h
[1] = system: UO-31 renal
[2] = system: EKVX NSCLC
[3] = system: SR leukemia
[4] = system: HCT-15 colon
[5] = system: SNB-75 CNS
[6] = system: SK-MEL-2 melanoma
[7] = system: HCT-116 colon
[8] = system: PC-3 prostate
[9] = system: UACC-257 melanoma
[10] = system: SK-MEL-5 melanoma

SMILES | GI50 [1] [µM] | TGI [1] [µM] | GI50 [2] [µM] | TGI [2] [µM] | GI50 [3] [µM] | TGI [3] [µM] | GI50 [4] [µM] | TGI [4] [µM] | GI50 [5] [µM] | TGI [5] [µM] | GI50 [6] [µM] | TGI [6] [µM] | GI50 [7] [µM] | TGI [7] [µM] | GI50 [8] [µM] | TGI [8] [µM] | GI50 [9] [µM] | TGI [9] [µM] | GI50 [10] [µM] | TGI [10] [µM]
Cc1cc(S(=O)(=O)Nc2nc3cc(-c4ccsc4)sc3c(=O)n2N)c(S)cc1Cl | > 100 | > 100 | > 100 | > 100 | > 100 | > 100 | 59.2 | > 100 | > 100 | > 100 | > 100 | > 100 | 47.4 | > 100 | 47.6 | > 100 | > 100 | > 100 | 38.4 | > 100
C#CCOc1cccc(Nc2ncc3ncn(C4CCN(C(=O)CCl)C4)c3n2)c1 (stereo not drawn) | 37.4 | > 62.5 | > 62.5 | > 62.5 | 7.72 | > 62.5 | > 62.5 | > 62.5 | > 62.5 | > 62.5 | > 62.5 | > 62.5 | 21.5 | > 62.5 | > 62.5 | > 62.5 | > 62.5 | > 62.5 | > 62.5 | > 62.5
Cc1cc(O)c2c(c1)C(=O)C(c1c(C)cc3c(c1O)C(=O)C1OC1C3=O)=CC2=O (stereo not drawn) |  | 3.77 |  | 12.5 |  | 40.1 |  | 3.05 |  | 28.1 |  | 24.6 |  | 3.21 |  | 25.1 |  | 11.3 |  | 19.7
CC[C@H](C)[C@H](NC(=O)c1nccn1C)C(=O)N(C)[C@H](C[C@@H](OC(C)=O)c1nc(C(=O)N[C@@H](Cc2ccccc2)C[C@H](C)C(=O)OC)cs1)C(C)C | 2.9 | > 33.3 | 1.72 | > 33.3 | 0.179 | > 33.3 | 0.999 | > 33.3 | 0.199 | > 33.3 | 0.806 | > 33.3 | 0.724 | > 33.3 | 1.11 | > 33.3 |  |  | 0.668 | 3.67
N#Cc1c(NCc2ccccc2)nc(NCc2ccccc2)c(C#N)c1-c1cccc(O)c1 | 6.12 | 87.6 | 11.6 | 45 | 2.09 | 7.48 | 4.33 | 33.7 | 39.4 | > 100 | 6.23 | 23 | 4.48 | 16.1 | 4.66 | 28.8 | > 100 | > 100 |  | 
CCCNc1cccc(-n2ncc3c(N/N=C/c4ccncc4)ncnc32)c1 |  |  | > 25 | > 25 | 1.18 | > 25 | 1.68 | > 25 | 0.934 | > 19.4 | 1.49 | > 25 | 1.82 | > 25 | > 25 | > 25 | > 25 | > 25 | 1.64 | > 25
CCN(CC)CCOc1nc2cc(OC)c(OC)cc2c2c1-c1ccc(OC)cc1C2=O | 1.77 | 14.2 | 14.2 | 28.1 | 0.583 | 3.4 | 1.79 | 3.78 | 16.8 | 33.1 |  |  | 1.35 | 2.63 | 12.3 | 26.8 | 19.8 | 34.3 | 16.1 | 30.2
CC1(C)N=C(N)N=C(N)N1c1ccc(OCCCCNC(=O)c2ccc(S(=O)(=O)F)cc2)c(Cl)c1 | 48.8 | > 100 |  |  | 4.95 | > 100 | 23.3 | > 100 | 16.5 | > 100 | 77.2 | > 100 | 3.53 | > 100 | 0.743 | > 100 | 6.36 | > 100 | 5.19 | > 100
N=C1C(c2nc(-c3ccc(Br)cc3)cs2)=C(O)CN1CC1CCCO1 (stereo not drawn) | > 100 | > 100 | > 100 | > 100 | > 100 | > 100 | > 100 | > 100 | 7.13 | > 100 | > 100 | > 100 |  |  | > 100 | > 100 | > 100 | > 100 | > 100 | > 100
O=c1[nH]cnc2nc(-c3ccc(N(CCCl)CCCl)cc3)[nH]c12 | 10.4 | 38.3 | 11 | > 100 | > 100 | > 100 | 9.81 | > 100 | 18.1 | 74.2 | > 100 | > 100 | 12.6 | > 100 | > 100 | > 100 |  |  | 3.47 | > 100
C=Cc1cnc([N+](=O)[O-])n1C |  | > 100 |  | > 100 |  | 60.5 |  | > 100 |  |  |  |  |  | > 100 |  | > 100 |  | > 100 |  | > 100
CC(=O)Nc1cc2cc(NS(=O)(=O)c3cc(C(F)(F)F)cc(C(F)(F)F)c3)ccc2oc1=O |  | > 100 |  | > 100 |  | > 100 |  | > 100 |  |  |  | > 100 |  | > 100 |  | > 100 |  | > 100 |  | > 100
C[C@]12CC[C@H]3[C@@H](CCC4=C[C@@H](OC5OCC(OC6OC(CO)C(O)C(O)C6O)C(O)C5O)CC[C@@]43C=O)[C@@]1(O)CCC2C1=CC(=O)OC1 (stereo partly drawn) |  | 3.45 |  | 1.64 |  | 0.627 |  | 1.76 |  | 12.8 |  | 5.93 |  | 1.25 |  | 4.14 |  |  |  | 
O=c1oc2cc(OS(=O)(=O)c3ccccc3)ccc2c2c1CCCCC2 | 8 | > 100 |  |  | 3.01 | > 100 | 3.92 | > 100 | 16.9 | > 100 | > 100 | > 100 | 3.62 | > 100 | 2.61 | > 100 | 7.31 | > 100 | 2.88 | > 100
O=C(c1ccccc1)c1ccccc1C(=O)c1ccccc1 |  |  | 28.6 | > 100 | 41.7 | > 100 | 50 | > 100 | 45.5 | > 100 | 58.6 | > 100 | 29.8 | > 100 | 37.7 | > 100 | 40.5 | > 100 | 22.5 | 67.1
O=C(O)c1ccc2cccnc2c1O | 1.14 | 8.65 | 1.75 | > 46 | 2.23 | > 100 | 0.994 | > 100 | 1.51 | > 100 | 1.95 | 7.46 | 0.532 | 25 |  | > 100 | 2.02 | 5.29 |  | 
Cc1nc2sc(C(=O)Nc3cccc(Cl)c3C)c(N)c2cc1C(C)O (stereo not drawn) | 0.61 | 29.2 | 0.533 | > 77 | 0.0418 | > 51.7 | 0.091 | > 39.6 | 0.097 | > 42.1 |  |  | 0.159 | > 35.7 | 0.286 | > 100 | 20.2 | > 51.6 | 0.26 | 15.6
Cn1c(O)c(N=NC(N)=S)c2ccccc21 |  |  | 2.04 | > 100 | 90.1 | > 100 | 44.6 | > 100 | 18.3 | 98 | > 100 | > 100 | 40.9 | > 100 | 79.9 | > 100 | 71.6 | > 100 | 38.1 | > 100
CC(=O)O[C@H](C[C@H](C(C)C)N(C)C(=O)[C@@H](NC(=O)[C@H]1CCCCN1C)C(C)(C)C)c1nc(C(=O)N[C@@H](Cc2ccccc2)C[C@H](C)C(=O)O)cs1 | 0.0192 | > 25 | 0.00462 | > 25 | < 0.0025 | > 25 | < 0.0025 | > 25 | < 0.0025 | > 25 | < 0.0025 | > 25 | < 0.0025 | > 25 | < 0.0025 | > 25 |  |  | < 0.0025 | 0.0057
Cc1[nH]n(-c2ccccc2)c(=O)c1C(=O)c1ccccc1 | > 25 | > 25 |  |  | > 21 | > 25 | > 23.9 | > 25 | > 25 | > 25 | > 25 | > 25 | > 25 | > 25 | 19.7 | > 25 | > 25 | > 25 | > 25 | > 25
C=C1C[C@@H]2[C@H](CC[C@]3(C)C(=O)CC[C@@H]23)[C@@]2(C)C=CC(=O)C=C12 | 22 | > 56.5 | > 59.2 | > 100 | > 54.4 | > 79.9 | 10 | 34.3 | 30 | > 100 |  | > 28.3 | 14.7 | 29.9 | 66.9 | > 100 |  |  | 7.5 | 33.7

— PubChem BioAssay (NCI)
